# Laboratory results as given in ChEMBL document CHEMBL5726641, “Inhibitors of lysine methyl transferase” (2017).
# pIC50: −log10 of the molar value.
# Molecular target: Histone-lysine N-methyltransferase EZH2 (Homo sapiens, UniProt Q15910, Y641F)
# Assay: Biological Assay: EZH2 Histone Methyl Transferase Assay: The effectiveness of compounds of the present invention as inhibitors of histone methyl transferases can be readily tested by assays known to those skilled in the art. For example, in vitro histone methyl transferase assays may be conducted with a relevant purified histone methyl transferase and an appropriate synthetic substrate to determine the inhibitory activity of the compounds. Assays for inhibition of EZH2 by the instant compounds were performed in 384-well plates with reaction mixtures containing 350 nM of histone peptide substrate (ATKAAR-K(Me2)-SAPATGGVKKPHRYRPG-GK(Biotin), 500 nM S-[methyl-3H]adenosyl-L-methionine (55-85 Ci/mmol), 50 mM Tris-HCl (pH 9.0), 50 mM NaCl, 1 mM dithiothreitol, Tween-20 at 0.01% and fatty-acid free bovine serum albumin at 0.01%, and recombinant EZH2-641F complex (EZH2 Y641F/EED/SUZ12/RbAp48/AEBP2) at 5 nM (>98% purity, BPS Bioscience) or 15 nM (50% purity, in-house). Reaction mixtures were incubated at room temperature for 3 hours, and the reactions were terminated by 0.005% poly-L-lysine solution in 20 mM Tris-HCl (pH 7.5) and 150 mM NaCl. Reaction products were captured by binding to strepavidin-conjugated imaging beads. Incorporation of radioactive methyl group into the histone peptide substrate was determined in Leadseeker (GE Healthcare) by means of scintillation proximity assay.
# Histone-lysine N-methyltransferase EZH2, sequence (Q15910 whole entry Y641F): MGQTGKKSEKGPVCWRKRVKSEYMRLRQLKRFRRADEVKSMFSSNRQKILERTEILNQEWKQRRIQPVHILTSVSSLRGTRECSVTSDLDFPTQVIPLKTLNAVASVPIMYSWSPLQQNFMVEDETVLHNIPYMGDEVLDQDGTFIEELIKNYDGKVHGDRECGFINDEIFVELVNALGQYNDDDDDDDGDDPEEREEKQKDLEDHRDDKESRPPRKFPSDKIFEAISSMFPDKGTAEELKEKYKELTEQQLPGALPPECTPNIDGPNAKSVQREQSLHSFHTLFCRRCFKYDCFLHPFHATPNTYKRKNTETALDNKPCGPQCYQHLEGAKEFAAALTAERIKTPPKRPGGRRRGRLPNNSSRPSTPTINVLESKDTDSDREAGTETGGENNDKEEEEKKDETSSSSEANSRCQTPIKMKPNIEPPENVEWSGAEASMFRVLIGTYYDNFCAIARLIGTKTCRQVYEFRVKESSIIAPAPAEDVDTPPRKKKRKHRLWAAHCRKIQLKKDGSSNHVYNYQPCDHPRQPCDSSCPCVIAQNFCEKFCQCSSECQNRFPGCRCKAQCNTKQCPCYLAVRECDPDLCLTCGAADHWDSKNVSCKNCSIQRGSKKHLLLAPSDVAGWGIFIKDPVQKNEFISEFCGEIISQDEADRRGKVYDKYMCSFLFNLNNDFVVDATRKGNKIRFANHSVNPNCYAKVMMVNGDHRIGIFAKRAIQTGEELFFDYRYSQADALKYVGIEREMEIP
row,Compound,pIC50
1,CCCc1cc(C)[nH]c(=O)c1CNC(=O)c1cc2c(c(-c3ccc(N4CCNCC4)nc3)c1)OC(C)(C(C)C)C2 (centres undefined),> 6.30
2,C=C(C)C1(C)Cc2cc(C(=O)NCc3c(C)cc(C)[nH]c3=O)cc(-c3ccc(N4CCNCC4)nc3)c2O1 (centres undefined),> 6.30
3,Cc1cc(C)c(CNC(=O)c2cc3c(c(C(F)(F)F)c2)OC(C)(C)C3)c(=O)[nH]1,< 6.00
4,Cc1cc(C)c(CNC(=O)c2cc(Br)c3c(c2)OC/C=C\CO3)c(=O)[nH]1,< 6.00
5,C=C(C)C1(C)Cc2cc(C(=O)NCc3c(CCC)cc(C)[nH]c3=O)cc(-c3ccc(N4CCNCC4)nc3)c2O1 (centres undefined),> 6.30
6,COc1ccc(-c2cc(C(=O)NCc3c(C)cc(C)[nH]c3=O)cc3c2OC(C)(C(C)C)C3)cn1 (centres undefined),< 6.00
7,COc1ccc(-c2cc(C(=O)NCc3c(C)cc(C)[nH]c3=O)cc3c2OCC3(C)C)cn1,< 6.00
8,C=C(C)C1(C)Cc2cc(C(=O)NCc3c(CCC)cc(C)[nH]c3=O)cc(-c3cnc(N4CCNCC4)nc3)c2O1 (centres undefined),> 6.30
9,CCC1COc2cc(C(=O)NCc3c(C)cc(C)[nH]c3=O)cc(-c3ccc(N4CCNCC4)nc3)c2O1 (centres undefined),< 6.00
